Source: paper PMC3849131, “^18 F-click labeling and preclinical evaluation of a new ^18 F-folate for PET imaging” (EJNMMI Research, 2013)

Experiment: In vitro metabolite/stability study in fetal calf serum
Assay type: in vitro ADME
Details: FCS, 37°C, 15, 30, 60 and 90 min
Description: A solution of [^18 F]12 (50 μL, approximately 5 MBq) was incubated with 500 μL of fetal calf serum (FCS) at 37°C and the mixture shaken at 900 rpm. The time points were set between 0 and 90 min using 500 μL of FCS and 50 μL of the radiotracer for each time point. Plasma proteins were precipitated by addition of cold acetonitrile (300 μL), followed by centrifugation (10,000 rpm, 10 min). An aliquot of each time point (15, 30, 60, and 90 min, 100 μL) was injected into the analytical radio-HPLC system for analytics.
The stability of the new radiotracer, [^18 F]12, was evaluated in the presence of FCS. For this purpose, [^18 F]12 was added to FCS and incubated at 37°C. At certain time points (15, 30, 60, and 90 min), aliquots were extracted and proteins removed by precipitation. The integrity of the radiotracer was determined by analytical radio-HPLC.

In the case of “16-(4-(((2-amino-4-oxo-3,4-dihydropteridin-6-yl)methyl)amino)benzamido)-1-(4-(2-(2-(2-[^18 F]fluoroethoxy)ethoxy)ethoxy)-1H-1,2,3-triazol-1-yl)-13-oxo-3,6,9-trioxa-12-azaheptadecan-17-oic acid [[^18 F]12]”, the “stability in fetal calf serum (radio-HPLC)” value is reported as “No degradation or defluorination”.
